In article PMC9127750, “Structure-based design of CDC42 effector interaction inhibitors for the treatment of cancer” (Cell reports, 2022):
Where “and” joins values, the source holds several entries; their conditions need not be identical. Identical values can stand only once.

Test system: WM3248 melanoma cells, 486 antibodies
Test: Reverse phase protein arrays (RPPA)
Assay type: cell-based, Human
Conditions: 10, normalized to 0
Source text: Pellets were snap frozen in liquid nitrogen and shipped to MD Anderson Cancer Center core RPPA facility for RPPA analysis (Table S5). Three biological replicates for each sample were generated.
Nomenclatures on the RPPA heatmaps: name_of_antibody.species_of_antibody.status_of_antibody. V - antibody validated; C - validation of antibody in progress; Q - antibody nonspecific; E – under evaluation; antibodies raised in M - mouse, G - goat, R - rabbit, or T - rat.

CN(C)c1cccc(Nc2cc(-c3ccccc3)nc(C3CCNCC3)n2)c1 [ARN22089, N1,N1-dimethyl-N3-(6-phenyl-2-(piperidin-4-yl)pyrimidin-4-yl)benzene-1,3-diamine]
FoxO3a_pS318_S321.R.C Norm_10 Average (average): 1.029 | G6PD.R.V Norm_10 Average (average): 1.034 | GATA3.M.V Norm_10 Average (average): 1.281 | GATA6.R.V Norm_10 Average (average): 1.018 | GCLC.R.C Norm_10 Average (average): 0.996 | GCLM.R.V Norm_10 Average (average): 1.023 | GCN5L2.R.V Norm_10 Average (average): 0.928 | GRB2.R.V Norm_10 Average (average): 0.887 | GRB7.R.V Norm_10 Average (average): 0.924 | GSK.3B.R.C Norm_10 Average (average): 0.899 | GSK.3a.b.M.V Norm_10 Average (average): 1.031 | GSK.3a.b_pS21_S9.R.V Norm_10 Average (average): 1.266 | Gab2.R.V Norm_10 Average (average): 1.065 | Gli1.R.C Norm_10 Average (average): 1.005 | Gli3.R.C Norm_10 Average (average): 1.134 | Glucocorticoid.Receptor.R.V Norm_10 Average (average): 1.119 | Glutamate.D1.2.R.V Norm_10 Average (average): 1.156 | Granzyme.B.R.V Norm_10 Average (average): 0.968 | Grp75.R.C Norm_10 Average (average): 1.129 | Gys.R.V Norm_10 Average (average): 0.931 | Gys_pS641.R.V Norm_10 Average (average): 0.978 | H2AX_pS139.R.C Norm_10 Average (average): 0.977 | H2AX_pS140.M.C Norm_10 Average (average): 1.138 | HER2.M.V Norm_10 Average (average): 1.033 | HER2_pY1248.R.V Norm_10 Average (average): 0.915 | HER3_pY1289.R.C Norm_10 Average (average): 1.047 | HES1.R.V Norm_10 Average (average): 0.974 | eEF2.R.C Norm_10 Average (average): 1.492 | eEF2K.R.V Norm_10 Average (average): 1.201 | eIF4E.R.V Norm_10 Average (average): 0.994 | eIF4E_pS209.R.V Norm_10 Average (average): 0.960 | eIF4G.R.C Norm_10 Average (average): 0.972 | DNMT1.R.V Norm_10 (replicates 1-3): 1.003 and 1.020 and 1.147 | DRP1.R.V Norm_10 (replicates 1-3): 0.964 and 0.992 | DUSP4.R.V Norm_10 (replicates 1-3): 0.853 and 0.881 and 0.939 | DUSP6.R.C Norm_10 (replicates 1-3): 1.409 and 0.561 | DYRK1B.R.C Norm_10 (replicates 1-3): 0.895 and 0.964 and 0.986 | Dvl3.R.V Norm_10 (replicates 1-3): 0.922 and 1.053 and 0.910 | E2F1.R.V Norm_10 (replicates 1-3): 1.049 and 1.123 and 1.077 | E.Cadherin.R.V Norm_10 (replicates 1-3): 0.791 and 0.958 | EGFR.R.V Norm_10 (replicates 1-3): 0.866 and 1.059 and 1.002 | EGFR_pY1068.R.C Norm_10 (replicates 1-3): 0.894 and 0.930 and 1.047 | EGFR_pY1173.R.V Norm_10 (replicates 1-3): 1.016 and 0.963 and 0.929 | EMA.M.C Norm_10 (replicates 1-3): 0.676 and 1.005 | ENY2.M.C Norm_10 (replicates 1-3): 0.937 and 1.132 | ER.a.R.V Norm_10 (replicates 1-3): 0.989 and 0.867 and 0.907 | ER.a_pS118.R.V Norm_10 (replicates 1-3): 1.111 and 0.755 and 0.869 | ERCC1.R.C Norm_10 (replicates 1-3): 0.934 and 1.208 and 0.991 | ERCC5.R.C Norm_10 (replicates 1-3): 0.985 and 0.864 | ERRalpha.R.V Norm_10 (replicates 1-3): 0.941 and 1.106 and 0.995 | EVI1.R.V Norm_10 (replicates 1-3): 0.864 and 1.146 and 1.022 | Elk1_pS383.R.C Norm_10 (replicates 1-3): 1.027 and 0.931 | Enolase.1.R.V Norm_10 (replicates 1-3): 0.940 and 1.265 and 1.276 | Enolase.2.R.V Norm_10 (replicates 1-3): 0.995 and 1.149 and 0.982 | EphA2.R.V Norm_10 (replicates 1-3): 0.867 and 0.985 and 0.905 | EphA2_pS897.R.C Norm_10 (replicates 1-3): 0.664 and 0.906 and 1.028 | EphA2_pY588.R.C Norm_10 (replicates 1-3): 0.917 and 0.980 and 0.925 | Erk5.R.V Norm_10 (replicates 1-3): 0.835 and 0.809 and 0.986 | Ets.1.R.V Norm_10 (replicates 1-3): 1.099 and 1.361 and 1.457 | FABP5.R.C Norm_10 (replicates 1-3): 0.950 and 1.278 and 1.483 | FAK.R.C Norm_10 (replicates 1-3): 0.896 and 0.913 and 1.054 | FAK_pY397.R.V Norm_10 (replicates 1-3): 0.925 and 1.035 and 0.946 | FANCD2.R.V Norm_10 (replicates 1-3): 0.931 and 0.985 and 0.874 | FASN.R.V Norm_10 (replicates 1-3): 1.108 and 0.851 and 0.928 | FGF.basic.R.C Norm_10 (replicates 1-3): 0.849 and 0.905 and 1.085 | FN14.R.C Norm_10 (replicates 1-3): 1.121 | FOXM1.R.V Norm_10 (replicates 1-3): 0.803 and 0.992 (2×) | FOXO3.R.V Norm_10 (replicates 1-3): 0.977 and 1.253 and 1.014 | FRS2.alpha_pY196.R.V Norm_10 (replicates 1-3): 0.953 and 2.062 and 1.103 | FTO.R.V Norm_10 (replicates 1-3): 0.987 and 1.185 and 1.127 | Fibronectin.R.V Norm_10 (replicates 1-3): 0.978 and 1.062 and 1.006 | FoxO3a_pS318_S321.R.C Norm_10 (replicates 1-3): 0.963 and 1.140 and 0.984 | G6PD.R.V Norm_10 (replicates 1-3): 0.932 and 1.169 and 1.001 | GATA3.M.V Norm_10 (replicates 1-3): 1.235 and 1.401 and 1.207 | GATA6.R.V Norm_10 (replicates 1-3): 1.020 and 1.082 and 0.952 | GCLC.R.C Norm_10 (replicates 1-3): 0.939 and 0.967 and 1.083 | GCLM.R.V Norm_10 (replicates 1-3): 0.965 and 1.111 and 0.992 | GCN5L2.R.V Norm_10 (replicates 1-3): 0.997 and 0.898 and 0.890 | GGPS1.M.V Norm_10 (replicates 1-3): 0.913 and 1.085 and 1.264 | GRB2.R.V Norm_10 (replicates 1-3): 0.867 and 0.876 and 0.919 | GRB7.R.V Norm_10 (replicates 1-3): 0.829 and 0.838 and 1.106
